Data taken from paper PMC12198407, “Preclinical and first-in-human of purinostat mesylate, a novel selective HDAC I/IIb inhibitor, in relapsed/refractory multiple myeloma and lymphoma” (Signal Transduction and Targeted Therapy, 2025).
Read-outs that look alike come from different tables or passages of the source.

Key:
[1] = Body weight of MM1S xenograft, DEL and r/r DLBCL PDX mice; type: in vivo; details: treatment groups of the mouse models
Method: Mice received subcutaneous inoculation with 0.5 × 10^7 MM1S or RPMI-8226 cells, to establish xenograft models. […] When tumors reached 150–250 mm^3, mice were treated with various compounds. PM and panobinostat were administered intravenously three times a week at 5 mg/kg in combination therapy. […] Tumor volume (tumor volume (mm^3) = π/6 × length × width^2) and body weights were measured every two days.
Mice were weighed every two days. All data are represented as mean ± SEM.

[2] = Safety pharmacology, CNS and respiratory; type: in vivo, rats; details: 30 and 90 mg/kg i.v.
Method: In the 1.2 and 3.6 mg/kg groups, transient increases in heart rate were observed, and in the 3.6 mg/kg group, a transient and reversible prolongation of QT interval (9.6%) was also noted. Additionally, there were no significant effects observed on other qualitative and quantitative ECG parameters or blood pressure in the dogs. […] In the 90 mg/kg group, reduced locomotor activity and decreased standing frequency were also observed, but these effects returned to baseline after 24 hours. No significant effects were noted on other neurological behaviors in rats, and no impacts on the respiratory system were observed.

[3] = Pharmacokinetics, intravenous; type: in vivo, Beagle dogs; details: both sexes, Beagle, dog, plasma; for Vd: read-out: Vdss; for clearance: read-out: plasma clearance (CL)
Method: The elimination half-lives (T1/2) were 4.49 ± 0.669, 7.05 ± 3.07, and 8.47 ± 1.26 hours, respectively. The area under the plasma concentration-time curve from time zero to the last quantifiable time point (AUC0-last) was 75.1 ± 18.3, 238 ± 63.1, and 713 ± 122 h•ng/mL, respectively.

[4] = Chronic toxicity test, 4 weeks; type: in vivo, rats
Method: In this study, the low, medium, and high dose groups were set at 3, 10, and 30 mg/kg, respectively. The blank formulation was set at low and high doses of 45 and 450 mg/kg, corresponding to the doses of hydroxypropyl beta-cyclodextrin in the low and high dose groups of injectable Purinostat Mesylate. Dosing occurred once every two days, three times a week, for a total of four weeks, with some animals undergoing a four-week recovery period after the treatment ended. The main results indicated no mortality. In the high-dose group, symptoms included sparse fur, reduced activity, and scabbing at the injection site. […] The primary toxic target organs or systems included the immune system (spleen, thymus, various lymph nodes), submandibular gland, bone marrow, testis, and epididymis.

[5] = test system: RPMI-8226 xenograft (TP53 E285K); experiment: RPMI-8226 xenograft mouse model, PM+Pd combination; type: in vivo, NOD-SCID mice; details: PM 5 mg/kg; Dara+Bort+DXM 5+0.1+1; Pd 2.5+1; PM+Pd 5+2.5+1 mg/kg
Method: Mice received subcutaneous inoculation with 0.5 × 10^7 MM1S or RPMI-8226 cells, to establish xenograft models. […] When tumors reached 150–250 mm^3, mice were treated with various compounds. PM and panobinostat were administered intravenously three times a week at 5 mg/kg in combination therapy. […] Tumor volume (tumor volume (mm^3) = π/6 × length × width^2) and body weights were measured every two days. At the end, tumor tissues were weighed, and antitumor activity was evaluated by the tumor inhibition rate = (1 − tumor weight of treatment group/tumor weight of vehicle group) × 100%.

[6] = clinical; type: in vivo, human
Method: To analyze the pharmacokinetics (PK) of PM, serial blood samples were collected at pre-dose and at 5 minutes, 10 minutes, 20 minutes, 30 minutes, 32 minutes, 35 minutes, 45 minutes, 1 hour, 2 hours, 4 hours, 8 hours, and 12 hours post-dose on day 1. During the multiple dosing phase, blood samples were collected at pre-dose on day 15, and 5 minutes, 10 minutes, 20 minutes, 30 minutes, 32 minutes, 35 minutes, 45 minutes, 1 hour, 2 hours, 4 hours, 8 hours, and 12 hours post-dose on day 15. PM plasma concentrations were determined using ultra performance liquid chromatography (UPLC) coupled with tandem mass spectrometry (MS-MS) detection. Pharmacokinetic parameters, including Tmax, Cmax, AUC0-t, AUC0-∞, t1/2, MRT, CL, Ke, and V, were calculated using the non-compartmental analysis (NCA) method with the professional pharmacokinetic software Phoenix WinNonlin (Version 8.1). Dose proportionality was assessed in single-dose experiments, while drug accumulation was evaluated in multiple-dose experiments.

[7] = target: HDAC11 (Homo sapiens, UniProt Q96DB2); experiment: HDAC enzyme activity in vitro; type: biochemical
HDAC11, sequence (Q96DB2 whole entry): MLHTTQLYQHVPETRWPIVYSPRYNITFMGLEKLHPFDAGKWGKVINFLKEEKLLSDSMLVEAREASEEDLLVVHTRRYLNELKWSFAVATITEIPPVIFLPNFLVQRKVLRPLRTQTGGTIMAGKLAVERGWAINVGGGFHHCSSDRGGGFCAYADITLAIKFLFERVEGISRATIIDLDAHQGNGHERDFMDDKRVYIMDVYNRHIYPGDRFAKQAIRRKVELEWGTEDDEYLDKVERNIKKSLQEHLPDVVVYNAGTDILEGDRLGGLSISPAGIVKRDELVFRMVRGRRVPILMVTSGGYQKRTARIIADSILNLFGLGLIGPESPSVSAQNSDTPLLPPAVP

[8] = test system: CYP2B6; experiment: CYP induction, cryopreserved human liver cells; type: in vitro ADME; details: 0.0500, 0.500, 5.00 µM; three donors
[9] = in vivo
Description: According to the "Guidelines for the Clinical Trial of Antineoplastic Drugs," for cytotoxic agents, the maximum recommended starting dose (MRSD) can be determined as one-tenth of the maximum tolerated dose (MTD) in rodent studies or one-sixth of the MTD in non-rodent species, expressed in mg/m². For some non-cytotoxic antineoplastic agents, due to their relatively lower toxicity, the starting dose for single administration in Phase I clinical trials can be calculated using one-fifth of the No Observed Adverse Effect Level (NOAEL) from non-rodent studies, or higher.
The Pharmacological Active Dose (PAD) based on mice is used to predict the minimum dose that may produce the expected pharmacological effect in humans.

[10] = target: T1, CYP2C8 (Homo sapiens, UniProt P10632); experiment: CYP inhibition, human liver microsomes; type: in vitro ADME
T1 construct: human liver microsomal cytochrome P450 isoenzymes; from tissue; host or cells: human liver microsomes
T1 sequence (P10632 whole entry): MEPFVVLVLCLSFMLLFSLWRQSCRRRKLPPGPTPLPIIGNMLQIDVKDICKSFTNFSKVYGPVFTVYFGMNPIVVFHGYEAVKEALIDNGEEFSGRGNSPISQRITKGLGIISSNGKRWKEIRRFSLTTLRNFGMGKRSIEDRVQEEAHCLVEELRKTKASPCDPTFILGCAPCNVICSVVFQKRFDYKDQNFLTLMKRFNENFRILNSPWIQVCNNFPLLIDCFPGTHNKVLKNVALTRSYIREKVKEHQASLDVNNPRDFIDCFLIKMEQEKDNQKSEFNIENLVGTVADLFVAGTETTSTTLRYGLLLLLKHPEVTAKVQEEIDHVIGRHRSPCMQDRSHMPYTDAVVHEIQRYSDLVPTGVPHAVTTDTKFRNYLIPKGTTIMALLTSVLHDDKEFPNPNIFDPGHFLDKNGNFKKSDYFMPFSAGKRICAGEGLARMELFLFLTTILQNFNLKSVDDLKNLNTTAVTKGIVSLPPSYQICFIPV

[11] = test system: mouse B-cell lymphoma; experiment: Ighmyc transgenic B-cell lymphoma model, survival; type: in vivo, mice
[12] = Chronic toxicity test, intravenous; type: in vivo, Beagle dogs
Method: In this study, the low, medium, and high dose groups were set at 0.3, 1, and 3 mg/kg, respectively. The excipient was set at a high dose of 45 mg/kg. In the low dose group, occasional vomiting was observed; in the medium dose group, symptoms included vomiting, loose stools, and dark red stools; in the high dose group, symptoms included vomiting and dark red stools. Four dogs (4/10, 2 females and 2 males) died between days 13 and 26 of the experiment. […] The primary toxic target organs or systems included the immune system (spleen, thymus, lymph nodes), digestive system (esophagus, liver, pancreas, intestine), kidneys, heart, lungs, trachea, testes, bone marrow, and injection site. There was a dose-dependent relationship, and recovery was observed during the recovery period. The highest no serious toxicity dose (HNSTD) was determined to be 1 mg/kg.

[13] = test system: mouse BM-derived osteoclasts (M-CSF, RANKL); experiment: Osteoclast formation, TRAP staining; type: cell-based, C57BL/6 mice; details: M-CSF and RANKL induced
Method: Primary mouse BM cells were collected from 6-to-8 weeks C57BL/6 mice, and 1.0 × 10^5 cells were seeded into 48-well plates with α-MEM containing 10% FBS and 40 ng/mL M-CSF (PeproTech, catalog # 315-02) for 3 days to recruit macrophage and then induce osteoclast differentiation plus 50 ng/mL RANKL (R&D, catalog # 462-TEC-010/CF) with or without indicated concentration of PM for 4 days. Half-media changes were carried out every 2 days. The TRAP staining kit was purchased from Sigma-Aldrich (CS0704), and TRAP staining was performed according to the kit instructions.

[14] = target: HDAC7 (Homo sapiens, UniProt Q8WUI4); experiment: HDAC enzyme activity in vitro; type: biochemical
HDAC7, sequence (Q8WUI4 whole entry): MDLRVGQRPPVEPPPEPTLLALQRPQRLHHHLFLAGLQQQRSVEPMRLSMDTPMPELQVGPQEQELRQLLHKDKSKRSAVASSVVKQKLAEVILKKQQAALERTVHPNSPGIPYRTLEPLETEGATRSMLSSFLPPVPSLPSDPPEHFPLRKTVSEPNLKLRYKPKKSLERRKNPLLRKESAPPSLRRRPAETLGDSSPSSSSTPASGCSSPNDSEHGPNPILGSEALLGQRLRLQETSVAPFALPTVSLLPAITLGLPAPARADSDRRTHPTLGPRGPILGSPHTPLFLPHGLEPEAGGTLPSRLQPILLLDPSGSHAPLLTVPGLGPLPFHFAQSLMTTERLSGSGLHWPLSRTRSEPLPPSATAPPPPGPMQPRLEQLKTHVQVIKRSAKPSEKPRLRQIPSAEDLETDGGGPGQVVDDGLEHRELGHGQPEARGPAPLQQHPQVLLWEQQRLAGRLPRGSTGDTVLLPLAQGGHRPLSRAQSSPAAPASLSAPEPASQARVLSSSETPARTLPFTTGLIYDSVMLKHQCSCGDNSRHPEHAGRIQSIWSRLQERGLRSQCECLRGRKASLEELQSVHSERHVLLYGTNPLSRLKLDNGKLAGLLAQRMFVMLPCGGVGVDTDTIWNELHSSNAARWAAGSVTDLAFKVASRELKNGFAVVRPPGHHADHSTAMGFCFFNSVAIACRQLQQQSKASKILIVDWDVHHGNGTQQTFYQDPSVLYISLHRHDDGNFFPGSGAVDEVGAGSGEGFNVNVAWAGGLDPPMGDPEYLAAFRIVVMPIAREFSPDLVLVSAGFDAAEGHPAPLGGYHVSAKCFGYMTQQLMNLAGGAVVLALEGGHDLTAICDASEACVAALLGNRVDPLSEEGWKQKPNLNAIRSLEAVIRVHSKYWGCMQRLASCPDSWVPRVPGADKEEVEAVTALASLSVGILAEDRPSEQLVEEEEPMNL

In the case of CN(Cc1nc2c(N3CCOCC3)nc(-c3ccc(N)cc3)nc2n1C)c1ncc(C(=O)NO)cn1.CS(=O)(=O)O [PM, 2-(((2-(4-Aminophenyl)-9-methyl-6-(4-morpholinyl)-9H-purine-8-yl)methyl)methylamino)-N-hydroxy-5-pyrimidine-carboxamide Mesylate], the “body weight / side effects” value [1] is reported as “no weight loss or other evident side effects”, the body temperature [2] is reported as “a decrease in body temperature” and the AUC(0-t) ([3]; 0.3 mg/kg) is reported as 75.1 ± 18.3 ng·h/mL. For the same compound, the Cmax ([3]; 0.3 mg/kg single i.v.) was 130 ± 35.5 ng/mL, the half-life ([3]; 0.3 mg/kg, read-out: T1/2 (converted)) was 4.49 ± 0.669 h and the Vd ([3]; 0.3 mg/kg) was 3.69 ± 0.957 L/kg. For the same compound, the clearance ([3]; 0.3 mg/kg) was 68.4 ± 13.2 mL/min/kg, the AUC(0-t) ([3]; 1 mg/kg) was 238 ± 63.1 ng·h/mL and the Cmax ([3]; 1 mg/kg single i.v.) was 411 ± 162 ng/mL. For the same compound, the half-life ([3]; 1 mg/kg, read-out: T1/2 (converted)) was 7.05 ± 3.07 h, the Vd ([3]; 1 mg/kg) was 3.85 ± 1.8 L/kg and the clearance ([3]; 1 mg/kg) was 73.4 ± 17.9 mL/min/kg. The AUC(0-t) ([3]; 3 mg/kg) was 713 ± 122 ng·h/mL, the Cmax ([3]; 3 mg/kg single i.v.) was 1230 ± 166 ng/mL and the half-life ([3]; 3 mg/kg, read-out: T1/2 (converted)) was 8.47 ± 1.26 h. It also gave a Vd ([3]; 3 mg/kg) of 2.89 ± 0.605 L/kg, a clearance ([3]; 3 mg/kg) of 71.5 ± 11.6 mL/min/kg and a half-life ([3]; single i.v., range over doses, read-out: half-life) of 4.49 to 8.47 h. The mortality ([4]; 3, 10, 30 mg/kg) was “no mortality”, the “highest no serious toxicity dose (HNSTD)” value ([4]; three times a week, four weeks) was 30 mg/kg and the tumor inhibition rate [5] was 86.05%. The “accumulation index for AUC0–∞ (multiple doses/single dose)” value ([6]; 1.2 to 15.0 mg/m^2) was 0.97–1.17, the “accumulation index for Cmax (multiple doses/single dose)” value ([6]; 1.2 to 15.0 mg/m^2) was 0.96 to 1.32 and the half-life ([6]; human, plasma, iv, single (Day 1) intravenous, range over doses, read-out: half-life (t1/2)) was 2.3 to 3.51 h. The IC50 [7] was 3.35 µM, the “induction of CYP2B6” value [8] was “did not act as an inducer” and the NOAEL ([9]; beagle, dog) was under 0.3 mg/kg. It also gave an NOAEL ([9]; rat) of under 3 mg/kg, an IC50 [10] of over 10 µM and a median survival time ([11]; 2.5 mg/kg, solvent control 10.5 days) of 19.5 days. It also gave a median survival time ([11]; 5 mg/kg) of 23 days, a median survival time ([11]; 10 mg/kg) of 22.5 days and an NOAEL ([12]; both sexes, beagle, dog, in vivo, intravenous) of under 0.3 mg/kg. For the same compound, the “highest no serious toxicity dose (HNSTD)” value ([12]; both, beagle, dog, in vivo, intravenous) was 1 mg/kg, the dogs that died ([12]; high dose 3 mg/kg, days 13 to 26) was 4/10 and the “prolongation of QTc” value ([12]; high dose group, male dogs) was 9.6%. For the same compound, the “mature osteoclast formation (TRAP staining)” value [13] was “obviously suppressed mature osteoclast cells formation” and the IC50 [14] was 0.59 µM.
